Test results published in patent US20250288682A1, “DEVELOPMENT OF NANO-ENCAPSULATED FATTY-ACYL CONJUGATED COLCHICINE” (priority 2022, published 2025).
Like-named read-outs stand apart in the source and are kept apart here.

Legend:
[1] = for behenic acid conjugated colchicine in plasma: rats, 1 mg/kg
Experimental: The route of administration and the PK profile for liposomes colchicine were evaluated. The scaled-up formulation of liposomes colchicine, 15 mL, ghost formulation, non-liposomal behenic acid-conjugated colchicine and free colchicine were evaluated to determine the PK profile of liposomes colchicine, as a function of route of administration, intra-peritoneal injection and oral gavage. This preliminary in vivo study is designed to estimate PK parameters of liposomes colchicine and mode of administration of the liposomes. This study was performed using 10 rats divided into 4 groups as specified in FIG. 14. Rats received colchicine or liposomes-colchicine at 1 mg/kg by intra-peritoneal injection or oral gavage. Two and 24 hours after administration, blood was collected for a quantification of plasmatic colchicine and liposomes by liquid chromatography-mass spectrometry (LC-MS/MS). […] All plasma samples were analyzed for colchicine and colchicine-behenic acid conjugate.
LC/MS samples were prepared as per standard plasma extraction protocol.

[2] = test system: HUVEC endothelial cells; conditions: 24 hour stimulation, 0.1 to 10000 nM
Experimental: Cell toxicity was tested on RAW264.7 macrophages and HUVEC endothelial cells. All cells were plated on 96-wells plate (2000 and 8000 cells per well, respectively) and exposed to colchicine or controls three days after (FIGS. 11A and 11B). Cells were exposed to commercialized colchicine (#9754, Sigma-Aldrich), behenic-acid colchicine or liposomal nanoparticles-colchicine (liposomes-colchicine, generated by the nanoSTAR Institute) as well as their respective controls (free media, ethanol/DMSO, ghost liposomes) from 0.1 to 10000 nM. After 24 hours of stimulation, media was removed and replaced with MTT solution (M2128, Sigma-Aldrich) at 0.375 mg/mL for 4 hours at 37° C. Viable cells produced dark blue formazan products. These products were dissolved in an isopropanol/Triton X-100, 10%/HCl solution, and read at 575 nm for absorbance density values to determine the cell viability. The percentage of the viable cells was calculated using the following formula: (%)=[100×(colchicine compound absorbance)/(own control absorbance)].

[3] = test system: microtubules, HUVEC endothelial cells; conditions: 100 nM, 24 hours
Experimental: (§1) The efficiency of colchicine to bind microtubules and alter their polymerization was evaluated on HUVEC endothelial cells (FIG. 12) and J774 macrophages (FIG. 13). Cells were plated, respectively, at 5000 and 10000 cells/cm2 three days before colchicine stimulation. […] After 24 hours of stimulation, cells were fixed with paraformaldehyde 4% for 10 minutes. Blocking was performed with 10% normal goat serum with 0.2% Triton X-100. The immunocytometry staining used an α/β-tubulin antibody (#2148, Cell Signaling, 1/100, overnight, +4° C.) followed with a goat anti-rabbit antibody Alexa 555 (#A21429, Invitrogen, 1/200, 1 hour, room temperature). DAPI was used for nuclear staining. Pictures at 20× magnification were taken using AxioVision software SE64 4.9.1 (Zeiss).

[4] = test system: microtubules, J774 macrophages; conditions: 100 nM, 24 hours
Experimental: as §1

[5] = cited from earlier work
[6] = test system: tubulin; conditions: cited from earlier work
[7] = rats treated with behenic acid conjugated colchicine

## CCCCCCCCCCCCCCCCCCCCCC(=O)OCC(=O)N[C@H]1CCc2cc(OC)c(OC)c(OC)c2-c2ccc(OC)c(=O)cc21 [AI-3-25]
[1]; [7]
  colchifoline in plasma: found
  free colchicine as a metabolite in plasma: not found
[1]; IP, 2 hours
  behenic acid conjugated colchicine in plasma: presence
[1]; oral gavage
  behenic acid conjugated colchicine in plasma: diminished levels

## COc1cc2c(c(OC)c1OC)-c1ccc(OC)c(=O)cc1[C@@H](NC(C)=O)CC2 [Colchicine, colchicine]
[2]
  cell viability (MTT): decreased cell viability
[3]
  microtubule polymerization, cell division and cell shape: significantly dysregulated microtubule polymerization, cell division and cell shape
[4]
  microtubule polymerization, cell division and cell shape: significantly dysregulated microtubule polymerization, cell division and cell shape
[5]
  log P: about 1.5
[5]; high solubility and low permeability
  Biopharmaceutical Classification System class: class III

## COc1cc2c(c(OC)c1OC)-c1ccc(OC)c(=O)cc1[C@@H](NC(=O)CO)CC2 [colchifoline, N-(2-hydroxyacetyl) colchicine]
[6]
  tubulin binding compared with colchicine: stronger
